# Laboratory results taken from patent US12492173B2, “Herbicidal substituted N-tetrazolyl aryl carboxamides” (Bayer Aktiengesellschaft, priority 2019, dated 2025).
# Legend:
# Type in all cases: in vivo
# Matricaria inodora [1] = assay: Post-emergence herbicidal action, MATIN; set-up: key: % herbicidal action vs untreated; 100 = plants died, 0 = like control; conditions: for herbicidal action MATIN: Dosage 80 g/ha; for Herbicidal action against MATIN: post-emergence, dosage 80 g/ha
# Description: (§1) [table] 2. Post-Emergence Herbicidal Action Against Harmful Plants Seeds of monocotyledonous and dicotyledonous weed and crop plants are laid out in sandy loam soil in wood-fiber pots, covered with soil and cultivated in a greenhouse under good growth conditions. 2 to 3 weeks after sowing, the test plants are treated at the one-leaf stage. The compounds of the invention, formulated in the form of wettable powders (WP) or as emulsion concentrates (EC), are then sprayed onto the green parts of the plants in the form of an aqueous suspension or emulsion at a water application rate equating to 600 to 800 l/ha, with addition of 0.2% wetting agent. After the test plants have been left to stand in the greenhouse under optimal growth conditions for about 3 weeks, the action of the preparations is assessed visually in comparison to untreated controls (herbicidal action in percent (%): 100% activity=the plants have died, 0% activity=like control plants). […] The tables below illustrate, in an exemplary manner, the post-emergence herbicidal action of the compounds according to the invention, the herbicidal activity being stated in percent. In the experiments that follow, herbicidal action of numerous inventive compounds and the known compounds that are structurally closest from D1 (WO 2012/028579 A1) and D2 (WO 2018/202535 A1) were compared under the above-specified conditions by the pre-emergence and post-emergence method. The example numbers given in the tables relate to the compounds disclosed in the respective documents. In addition to the compounds disclosed in D1 and D2, the following compounds V-1 to V-14 that are encompassed by D1 or D2 but are not compounds specified therein were used in the comparative experiments: • V-1: 2-(methylsulfanyl)-3-(methylsulfinyl)-N-(1-methyl-1H-tetrazol-5-yl)-4-(trifluoromethyl)benzamide • V-2: 2-(methylsulfanyl)-3-(methylsulfonyl)-N-(1-methyl-1H-tetrazol-5-yl)-4-(trifluoromethyl)benzamide • V-3: 2,3-bis(ethylsulfanyl)-N-(1-methyl-1H-tetrazol-5-yl)-4-(trifluoromethyl)benzamide • V-4: 2-chloro-3-(ethylsulfanyl)-N-(1-methyl-1H-tetrazol-5-yl)-4-(trifluoromethyl)benzamide • V-5: 2-chloro-4-iodo-3-(methylsulfanyl)-N-(1-methyl-1H-tetrazol-5-yl)benzamide • V-6: 2-chloro-4-iodo-3-(methylsulfinyl)-N-(1-methyl-1H-tetrazol-5-yl)benzamide • V-7: 2-chloro-4-iodo-3-(methylsulfonyl)-N-(1-methyl-1H-tetrazol-5-yl)benzamide • V-8: 2-bromo-3-(methylsulfanyl)-N-(1-methyl-1H-tetrazol-5-yl)-4-(trifluoromethyl)benzamide • V-9: 2-bromo-3-(methylsulfinyl)-N-(1-methyl-1H-tetrazol-5-yl)-4-(trifluoromethyl)benzamide • V-10: 2-bromo-3-(methylsulfonyl)-N-(1-methyl-1H-tetrazol-5-yl)-4-(trifluoromethyl)benzamide • V-11: 2-bromo-3-(ethylsulfanyl)-N-(1-methyl-1H-tetrazol-5-yl)-4-(trifluoromethyl)benzamide • V-12: 2-bromo-3-(ethylsulfinyl)-N-(1-methyl-1H-tetrazol-5-yl)-4-(trifluoromethyl)benzamide • V-13: 2-bromo-3-(ethylsulfonyl)-N-(1-methyl-1-1H-tetrazol-5-yl)-4-(trifluoromethyl)benzamide • V-14: 2-cyclopropyl-3-(ethylsulfanyl)-N-(1-methyl-1H-tetrazol-5-yl)-4-(trifluoromethyl)benzamide Herbicidal Pre-Emergence Action: […]
# Echinochloa crus-galli [2] = assay: Post-emergence herbicidal action, ECHCG; set-up: key: % herbicidal action vs untreated; 100 = plants died, 0 = like control; conditions: for herbicidal action ECHCG: Dosage 80 g/ha; for Herbicidal action against ECHCG: post-emergence, dosage 80 g/ha
# Description: as §1
# Abutilon theophrasti [3] = assay: Post-emergence herbicidal action, ABUTH; set-up: key: % herbicidal action vs untreated; 100 = plants died, 0 = like control; conditions: for herbicidal action ABUTH: Dosage 80 g/ha; for Herbicidal action against ABUTH: post-emergence, dosage 80 g/ha
# Description: as §1
# Amaranthus retroflexus [4] = assay: Post-emergence herbicidal action, AMARE; set-up: key: % herbicidal action vs untreated; 100 = plants died, 0 = like control; conditions: for herbicidal action AMARE: Dosage 80 g/ha; for Herbicidal action against AMARE: post-emergence, dosage 80 g/ha
# Description: as §1
# Setaria viridis = assay: Post-emergence herbicidal action, SETVI; set-up: key: % herbicidal action vs untreated; 100 = plants died, 0 = like control; conditions: for herbicidal action SETVI: Dosage 80 g/ha; for Herbicidal action against SETVI: post-emergence, dosage 80 g/ha
# Description: as §1
# Viola tricolor [5] = assay: Post-emergence herbicidal action, VIOTR; set-up: key: % herbicidal action vs untreated; 100 = plants died, 0 = like control; conditions: for herbicidal action VIOTR: Dosage 80 g/ha; for Herbicidal action against VIOTR: post-emergence
# Description: as §1
# Pharbitis purpurea = assay: Post-emergence herbicidal action, PHBPU; conditions: for herbicidal action PHBPU: Dosage 80 g/ha; for Herbicidal action against PHBPU: post-emergence, dosage 80 g/ha
# Description: as §1
# Amaranthus retroflexus [6] = assay: Pre-emergence herbicidal action, AMARE; set-up: key to Herbicidal action against AMARE: % activity: 100 = plants have died, 0 = like control plants; conditions: for herbicidal action AMARE: dosage 320 g/ha
# From the text: (§2) 1. Pre-Emergence Herbicidal Action Against Harmful Plants Seeds of monocotyledonous and dicotyledonous weed plants and crop plants are laid out in sandy loam soil in wood-fiber pots and covered with soil. The compounds of the invention, formulated in the form of wettable powders (WP) or as emulsion concentrates (EC), are then applied to the surface of the covering soil in the form of an aqueous suspension or emulsion at a water application rate equating to 600 to 800 l/ha, with addition of 0.2% wetting agent. After the treatment, the pots are placed in a greenhouse and kept under good growth conditions for the trial plants. The damage to the test plants is scored visually after a test period of 3 weeks by comparison with untreated controls (herbicidal activity in percent (%): 100% activity=the plants have died, 0% activity=like control plants). […] The tables below illustrate, in an exemplary manner, the […] herbicidal action of the compounds according to the invention, the herbicidal activity being stated in percent. [table] In the experiments that follow, herbicidal action of numerous inventive compounds and the known compounds that are structurally closest from D1 (WO 2012/028579 A1) and D2 (WO 2018/202535 A1) were compared under the above-specified conditions by the pre-emergence and post-emergence method. The example numbers given in the tables relate to the compounds disclosed in the respective documents. In addition to the compounds disclosed in D1 and D2, the following compounds V-1 to V-14 that are encompassed by D1 or D2 but are not compounds specified therein were used in the comparative experiments: • V-1: 2-(methylsulfanyl)-3-(methylsulfinyl)-N-(1-methyl-1H-tetrazol-5-yl)-4-(trifluoromethyl)benzamide • V-2: 2-(methylsulfanyl)-3-(methylsulfonyl)-N-(1-methyl-1H-tetrazol-5-yl)-4-(trifluoromethyl)benzamide • V-3: 2,3-bis(ethylsulfanyl)-N-(1-methyl-1H-tetrazol-5-yl)-4-(trifluoromethyl)benzamide • V-4: 2-chloro-3-(ethylsulfanyl)-N-(1-methyl-1H-tetrazol-5-yl)-4-(trifluoromethyl)benzamide • V-5: 2-chloro-4-iodo-3-(methylsulfanyl)-N-(1-methyl-1H-tetrazol-5-yl)benzamide • V-6: 2-chloro-4-iodo-3-(methylsulfinyl)-N-(1-methyl-1H-tetrazol-5-yl)benzamide • V-7: 2-chloro-4-iodo-3-(methylsulfonyl)-N-(1-methyl-1H-tetrazol-5-yl)benzamide • V-8: 2-bromo-3-(methylsulfanyl)-N-(1-methyl-1H-tetrazol-5-yl)-4-(trifluoromethyl)benzamide • V-9: 2-bromo-3-(methylsulfinyl)-N-(1-methyl-1H-tetrazol-5-yl)-4-(trifluoromethyl)benzamide • V-10: 2-bromo-3-(methylsulfonyl)-N-(1-methyl-1H-tetrazol-5-yl)-4-(trifluoromethyl)benzamide • V-11: 2-bromo-3-(ethylsulfanyl)-N-(1-methyl-1H-tetrazol-5-yl)-4-(trifluoromethyl)benzamide • V-12: 2-bromo-3-(ethylsulfinyl)-N-(1-methyl-1H-tetrazol-5-yl)-4-(trifluoromethyl)benzamide • V-13: 2-bromo-3-(ethylsulfonyl)-N-(1-methyl-1-1H-tetrazol-5-yl)-4-(trifluoromethyl)benzamide • V-14: 2-cyclopropyl-3-(ethylsulfanyl)-N-(1-methyl-1H-tetrazol-5-yl)-4-(trifluoromethyl)benzamide Herbicidal Pre-Emergence Action: […]
# Veronica persica [7] = assay: Post-emergence herbicidal action, VERPE; set-up: key: % herbicidal action vs untreated; 100 = plants died, 0 = like control; conditions: for herbicidal action VERPE: Dosage 80 g/ha; for Herbicidal action against VERPE: post-emergence, dosage 80 g/ha
# Description: as §1
# Abutilon theophrasti [8] = assay: Pre-emergence herbicidal action, ABUTH; conditions: dosage 320 g/ha
# From the text: as §2
# Veronica persica [9] = assay: Pre-emergence herbicidal action, VERPE; conditions: dosage 320 g/ha
# From the text: as §2
# Stellaria media = assay: Post-emergence herbicidal action, STEME; set-up: key: % herbicidal action vs untreated; 100 = plants died, 0 = like control; conditions: for herbicidal action STEME: Dosage 80 g/ha; for Herbicidal action against STEME: post-emergence, dosage 80 g/ha
# Description: as §1
# Echinochloa crus-galli [10] = assay: Pre-emergence herbicidal action, ECHCG; conditions: dosage 320 g/ha
# From the text: as §2
# Viola tricolor [11] = assay: Pre-emergence herbicidal action, VIOTR; set-up: key to Herbicidal action against VIOTR: % activity: 100 = plants have died, 0 = like control plants; conditions: for herbicidal action VIOTR: dosage 320 g/ha
# From the text: as §2
# Matricaria inodora [12] = assay: Pre-emergence herbicidal action, MATIN; conditions: dosage 320 g/ha
# From the text: as §2
# [13] = comparative experiment, 20 g of a.i./ha
Structure (SMILES),herbicidal action AMARE (Amaranthus retroflexus [6]),herbicidal action ABUTH (Abutilon theophrasti [8]),herbicidal action VERPE (Veronica persica [9]),herbicidal action ECHCG (Echinochloa crus-galli [10]),Herbicidal action against ECHCG (Echinochloa crus-galli [2]),herbicidal action VIOTR (Viola tricolor [11]),Herbicidal action against AMARE (Amaranthus retroflexus [4]),Herbicidal action against VIOTR (Viola tricolor [5]; dosage 80 g/ha),Herbicidal action against PHBPU (Pharbitis purpurea),Herbicidal action against VERPE (Veronica persica [7]),herbicidal action MATIN (Matricaria inodora [12]),Herbicidal action against ABUTH (Abutilon theophrasti [3]),other results
COc1c(C(=O)Nc2nnnn2C)ccc(Cl)c1C[S+](C)[O-] (stereo not shown) [Example 1-571],90%,100%,80%,–,–,–,–,–,–,–,–,–,herbicidal action MATIN (Matricaria inodora [1]): 80; herbicidal action ECHCG (Echinochloa crus-galli [2]): 90; herbicidal action ABUTH (Abutilon theophrasti [3]): 80; herbicidal action AMARE (Amaranthus retroflexus [4]): 80; herbicidal action SETVI (Setaria viridis): 80; herbicidal action VIOTR (Viola tricolor [5]): 80; herbicidal action PHBPU (Pharbitis purpurea): 90; herbicidal action VERPE (Veronica persica [7]): 90; herbicidal action STEME (Stellaria media): 100
CCCn1nnnc1NC(=O)c1ccc(C(F)F)c(CS(C)(=O)=O)c1C [Example 3-109],100%,100%,90%,100%,90,100%,100,100,90,100,100%,–,Herbicidal action against MATIN (Matricaria inodora [1]): 100; Herbicidal action against SETVI (Setaria viridis): 90; Herbicidal action against STEME (Stellaria media): 100
CSCc1c(S(C)(=O)=O)ccc(C(=O)Nc2nnnn2C)c1C [Example 1-37],100%,80%,90%,–,–,100%,–,–,–,–,80%,–,herbicidal action MATIN (Matricaria inodora [1]): 80; herbicidal action ECHCG (Echinochloa crus-galli [2]): 100; herbicidal action ABUTH (Abutilon theophrasti [3]): 90; herbicidal action AMARE (Amaranthus retroflexus [4]): 100; herbicidal action SETVI (Setaria viridis): 100; herbicidal action VIOTR (Viola tricolor [5]): 100; herbicidal action PHBPU (Pharbitis purpurea): 90; herbicidal action VERPE (Veronica persica [7]): 100; herbicidal action STEME (Stellaria media): 100
Cn1nnnc1NC(=O)c1ccc(C(F)(F)F)c(CS(C)(=O)=O)c1S(C)(=O)=O [Example 1-199],90%,–,100%,90%,80,–,80,90,80,80,90%,90,Herbicidal action against STEME (Stellaria media): 90
COc1c(C(=O)Nc2nnnn2C)ccc(Cl)c1CS(C)(=O)=O [Example 1-572],100%,80%,80%,80%,90,–,90,80,80,90,–,80,"Herbicidal action against SETVI (Setaria viridis): 80; Herbicidal action against VIOTR (Viola tricolor [5]; comparative experiment, 5 g of a.i./ha): 50"
Cc1c(C(=O)Nc2nnnn2C)ccc(Cl)c1C[S+](C)[O-] (stereo not shown) [Example 1-47],–,–,–,–,–,–,–,–,–,–,–,–,Herbicidal action against VIOTR (Viola tricolor [11]; [13]): 30; Herbicidal action against AMARE (Amaranthus retroflexus [6]; [13]): 80
CCCn1nnnc1NC(=O)c1ccc(I)c(CSC)c1Cl [Example 3-362],–,–,–,–,80,80%,80,–,–,–,–,80,Herbicidal action against MATIN (Matricaria inodora [1]): 90
